Measured values published in ChEMBL document CHEMBL5120831, “Pep5-based antitumor peptides containing multifunctional fragments with enhanced activity and synergistic effect” (Eur J Med Chem, 2022).
Calls of active or inactive are those of the source. No cut-off for these calls is given here. Numbered stars: 1 amine (or outer) side, 2 acyl side, 3 side chain; on linkers, the order of the positions; unused ones are H or OH. Bridge positions count the residues as written; N and C are the ends. Square brackets hold non-standard residues; d marks the D form. I, II: the chains in the order shown. X1 = O=C([C@H](Cc1c[nH]c2ccccc12)N(c1ccc([N+](=O)[O-])c2nonc12)[*:1])[*:2]

Columns and labels:
[1] = system: HepG2; test: Cytotoxicity against human HepG2 cells assessed as reduction in cell viability measured after 24 hrs by CCK-8 assay; type: functional, cell-based; details: HepG2, 24 h
[2] = Cytotoxicity against human L02 cells assessed as reduction in cell viability measured after 24 hrs by CCK-8 assay; type: toxicity, cell-based
[3] = system: A549; test: Cytotoxicity against human A549 cells assessed as reduction in cell viability measured after 24 hrs by CCK-8 assay; type: functional, cell-based; details: A549, 24 h
[4] = Cytotoxicity against human BEAS-2B cells assessed as reduction in cell viability measured after 24 hrs by CCK-8 assay; type: toxicity, cell-based
[5] = system: HepG2; test: Induction of morphological changes in human HepG2 cells assessed as appearance of broken cell structure at 15 uM measured after 24 hrs by high-throughput microscopy; type: functional, cell-based
[6] = system: L02; test: Induction of apoptosis in human L02 cells assessed as reduction in viable cells at 15 uM measured after 24 hrs by Annexin V-FITC/propidium iodide staining based flow cytometry; type: toxicity, cell-based; details: l02, 24 h
[7] = system: BEAS-2B; test: Induction of apoptosis in human BEAS-2B cells assessed as reduction in viable cells at 15 uM measured after 24 hrs by Annexin V-FITC/propidium iodide staining based flow cytometry; type: toxicity, cell-based
[8] = system: HepG2; test: Induction of apoptosis in human HepG2 cells assessed as appearance of apoptotic bodies at 15 uM measured after 24 hrs by transmission electron microscopy; type: functional, cell-based
[9] = system: HepG2; test: Induction of apoptosis in human HepG2 cells assessed as chromatin condensation at 15 uM measured after 24 hrs by transmission electron microscopy; type: functional, cell-based
[10] = system: HepG2; test: Induction of apoptosis in human HepG2 cells assessed as swollen mitochondria at 15 uM measured after 24 hrs by transmission electron microscopy; type: functional, cell-based
[11] = system: HepG2; test: Induction of apoptosis in human HepG2 cells assessed as hollow mitochondria at 15 uM measured after 24 hrs by transmission electron microscopy; type: functional, cell-based
[12] = system: HepG2; test: Induction of apoptosis in human HepG2 cells assessed as cell membrane disruption at 15 uM measured after 24 hrs by transmission electron microscopy; type: functional, cell-based
[13] = system: HepG2; test: Induction of necrosis in human HepG2 cells assessed as cell membrane disruption at 30 uM measured after 24 hrs by transmission electron microscopy; type: functional, cell-based
[14] = system: HepG2; test: Induction of necrosis in human HepG2 cells assessed as releasing of large number of cell content into extracellular space at 30 uM measured after 24 hrs by transmission electron microscopy; type: functional, cell-based
[15] = system: A549; test: Induction of apoptosis in human A549 cells assessed as appearance of apoptotic bodies at 15 uM measured after 24 hrs by transmission electron microscopy; type: functional, cell-based
[16] = system: A549; test: Induction of apoptosis in human A549 cells assessed as chromatin condensation at 15 uM measured after 24 hrs by transmission electron microscopy; type: functional, cell-based
[17] = system: A549; test: Induction of apoptosis in human A549 cells assessed as swollen mitochondria at 15 uM measured after 24 hrs by transmission electron microscopy; type: functional, cell-based
[18] = system: A549; test: Induction of apoptosis in human A549 cells assessed as hollow mitochondria at 15 uM measured after 24 hrs by transmission electron microscopy; type: functional, cell-based
[19] = system: A549; test: Induction of apoptosis in human A549 cells assessed as cell membrane disruption at 15 uM measured after 24 hrs by transmission electron microscopy; type: functional, cell-based
[20] = system: A549; test: Induction of necrosis in human A549 cells assessed as cell membrane disruption at 30 uM measured after 24 hrs by transmission electron microscopy; type: functional, cell-based
[21] = system: A549; test: Induction of necrosis in human A549 cells assessed as releasing of large number of cell content into extracellular space at 30 uM measured after 24 hrs by transmission electron microscopy; type: functional, cell-based
[22] = system: A549; test: Induction of cell membrane disruption in human A549 cells assessed as increase in LDH release at 15 uM measured after 1 hr by LDH releasing reagent based assay
[23] = system: HepG2; test: Induction of cell membrane disruption in human HepG2 cells assessed as increase in LDH release at 15 uM measured after 1 hr by LDH releasing reagent based assay
[24] = system: Proteasome; test: Inhibition of proteasome activity in human A549 cells measured after 4 hrs by luciferase assay; details: dose 5-30 µM, DDE = dose-dependent effect
[25] = system: HepG2; test: Induction of ROS generation in human HepG2 cells at 10 to 30 uM measured after 4 hrs by DCFH-DA reagent based fluorescence assay; type: functional, cell-based; details: dose 10-30 µM
[26] = system: HepG2; test: Antitumor activity against human HepG2 cells xenografted in sc dosed BALB/c nude mouse assessed as tumor growth inhibition administered at 1 day interval for 9 days; type: functional, organism-based; details: dose 25-50 µM, time 9.0 day, DDE = dose-dependent effect
[27] = system: HepG2; test: Antitumor activity against human HepG2 cells xenografted in BALB/c nude mouse assessed as reduction in tumor volume at 25 to 50 uM, sc administered at 1 day interval for 9 days; type: functional, organism-based; details: dose 25-50 µM, time 9.0 day
[28] = Toxicity in HepG2 cell xenografted BALB/c nude mouse assessed as change in body weight at 25 to 50 uM, sc administered at 1 day interval for 9 days; type: organism-based; details: in vivo, 216 h, dose 25-50 µM, time 9 day
[29] = system: HepG2; test: Antitumor activity against human HepG2 cells xenografted in BALB/c nude mouse assessed as appearance of fuzzy boundary region at 25 to 50 uM, sc administered at 1 day interval for 9 days and measured on day 11 by H and E staining based histological analysis; type: functional, organism-based; details: dose 25-50 µM, time 11.0 day
[30] = system: HepG2; test: Antitumor activity against human HepG2 cells xenografted in BALB/c nude mouse assessed as missing nuclei at 25 to 50 uM, sc administered at 1 day interval for 9 days and measured on day 11 by H and E staining based histological analysis; type: functional, organism-based; details: dose 25-50 µM, time 11.0 day
[31] = system: HepG2; test: Antitumor activity against human HepG2 cells xenografted in BALB/c nude mouse assessed as induction of apoptosis at 25 to 50 uM, sc administered at 1 day interval for 9 days and measured on day 11 by TUNEL staining based assay; type: functional, organism-based; details: dose 25-50 µM, time 11.0 day
[32] = Drug uptake in human HepG2 cells at 15 uM measured after 1 hr by Hoechst 33258 staining based confocal laser scanning microscopy; type: ADME, cell-based; details: hepg2, 1 h
[33] = Drug uptake in human A549 cells at 15 uM measured after 1 hr by Hoechst 33258 staining based confocal laser scanning microscopy; type: ADME, cell-based; details: a549, 1 h
[34] = Drug uptake in human L02 cells at 15 uM measured after 1 hr by Hoechst 33258 staining based confocal laser scanning microscopy; type: ADME, cell-based; details: l02, 1 h
[35] = Drug uptake in human BEAS-2B cells at 15 uM measured after 1 hr by Hoechst 33258 staining based confocal laser scanning microscopy; type: ADME, cell-based
[36] = Drug uptake in human HepG2 cells at 15 uM measured after 1 hr by Hoechst 33258 staining based flow cyotmetry; type: ADME, cell-based; details: hepg2, 1 h
[37] = Drug uptake in human A549 cells at 15 uM measured after 1 hr by Hoechst 33258 staining based flow cyotmetry; type: ADME, cell-based; details: a549, 1 h
[38] = Drug uptake in human L02 cells at 15 uM measured after 1 hr by Hoechst 33258 staining based flow cyotmetry; type: ADME, cell-based; details: l02, 1 h
[39] = Drug uptake in human BEAS-2B cells at 15 uM measured after 1 hr by Hoechst 33258 staining based flow cyotmetry; type: ADME, cell-based
[40] = Drug uptake in human HepG2 cells membrane at 15 uM measured after 15 mins by Hoechst 33258/Lyso-Tracker Red staining based flow cytometry; type: ADME, cell membranes, Cell membrane; details: hepg2, 0.25 h
[41] = Drug uptake in endosome of human HepG2 cells at 15 uM measured after 30 mins by Hoechst 33258/Lyso-Tracker Red staining based flow cytometry; type: ADME; details: hepg2, 0.5 h
[42] = Drug uptake in cytoplasm of human HepG2 cells at 15 uM measured after 60 mins by Hoechst 33258/Lyso-Tracker Red staining based flow cytometry; type: ADME, subcellular; details: hepg2, 1 h
[43] = Drug uptake in human HepG2 cells at 15 uM measured after 60 to 120 mins by Hoechst 33258/Lyso-Tracker Red staining based flow cytometry; type: ADME, cell-based; details: hepg2, 15 µM, time 60-120 min

## I: H-WELVVLGKLLLHHLLHHLLHHGLRKRLRKFRNKIKEK / II: H-GLRKRLRKFRNKIKEK-NH2 (amide I:C-II:4)
[1]
  IC50: 7.77 µM
[2]
  IC50 at 24 h: 11.1 µM
[3]
  IC50: 6.41 µM
[4]
  IC50 at 24 h: 11.2 µM
[5]
  Activity: Active
[6]
  Activity: Non-Toxic
[7]
  Activity: Non-Toxic
[8]
  Activity: Active
[9]
  Activity: Active
[10]
  Activity: Active
[11]
  Activity: Active
[12]
  Activity: Active
[13]
  Activity: Active
[14]
  Activity: Active
[15]
  Activity: Active
[16]
  Activity: Active
[17]
  Activity: Active
[18]
  Activity: Active
[19]
  Activity: Active
[20]
  Activity: Active
[21]
  Activity: Active
[22]
  Activity: Active
[23]
  Activity: Active
[24]
  inhibition: Dde
[25]
  Activity: Active
[26]
  TGI: Dde
[27]
  Activity: Active
[28]
  Activity: Non-Toxic
[29]
  Activity: Active
[30]
  Activity: Active
[31]
  Activity: Active

## I: H-[X1]ELVVLGKLLLHHLLHHLLHHGLRKRLRKFRNKIKEK / II: H-GLRKRLRKFRNKIKEK-NH2 (amide I:C-II:4)
[32]
  Drug uptake: Active
[33]
  Drug uptake: Active
[34]
  Drug uptake: Active
[35]
  Drug uptake: Active
[36]
  Drug uptake: Active
[37]
  Drug uptake: Active
[38]
  Drug uptake: Active
[39]
  Drug uptake: Active
[40]
  Drug uptake: Active
[41]
  Drug uptake: Active
[42]
  Drug uptake: Active
[43]
  Drug uptake: Active
